The target in the assay is Leukotriene B4 receptor (Cavia porcellus). As to the kind of experiment: Tested for inhibition of specific binding of [3H]LTB4 to guinea pig lung membranes expressing LTB4 receptor.

What is called Ki is a measure of affinity in units of concentration, obtained from inhibition or displacement. Read a high Ki as lower affinity. `CCc1cc(-c2ccccc2)c(O)cc1OCCCOc1ccc2c(=O)c3ccccc3oc2c1CCC(=O)O` [3-{3-[3-(5-Ethyl-2-hydroxy-biphenyl-4-yloxy)-propoxy]-9-oxo-9H-xanthen-4-yl}-propionic acid] yielded a Ki of 12 nM.
Compound `CCc1cc(-c2ccccc2)c(O)cc1OCCCOc1ccc2c(=O)c3cc(C(=O)O)ccc3oc2c1CCC(=O)O` [5-(2-Carboxy-ethyl)-6-[3-(5-ethyl-2-hydroxy-biphenyl-4-yloxy)-propoxy]-9-oxo-9H-xanthene-2-carboxylic acid] gave a Ki of 0.11 nM.

Values taken from BindingDB's records for doi:10.1021/jm00076a030 (Eli Lilly, 1994).
